From US6740523B2 (priority 1997, dated 2004)

What was measured:
[1] = tested on: σ expression in HCT116 and other CRC cell lines; assay: Northern blot of σ expression following adriamycin treatment; type: cell-based, human; details: 0.2 ug/ml adriamycin
Method: (FIG. 1B) σ Expression following adriamycin treatment. Seven different CRC cell lines were treated with 0.2 ug/ml adriamycin (+) or vehicle (−) as indicated. RNA was prepared 24 hours following adriamycin treatment. Autoradiographs of Northern blots performed with σ, p21 and EF1 probes are shown. The p53 status of the respective cell lines is indicated on the top.
Northern blotting with a radiolabeled probe generated from σ cDNA was performed to confirm the SAGE results. […] Previous reports have shown that σ expression is limited to epithelial cells.
Total RNA was prepared by CsCl gradient ultracentrifugation of guanidine isothiocyanate-lysed cells as described. […].

[2] = tested on: HCT116 cells; type: cell-based, human

SMILES	induction of σ expression ([1]; HCT116 cells, RNA 24 hours after treatment)	σ expression in other colorectal cancer cell lines ([1]; several other CRC cell lines, 24 hours)	effect on polyploidization of Ad-σ infected cells [2]
COc1cccc2c1C(=O)c1c(O)c3c(c(O)c1C2=O)C[C@@](O)(C(=O)CO)C[C@@H]3O[C@H]1C[C@H](N)[C@H](O)[C@H](C)O1 [adriamycin]	similarly induce σ expression	express σ at relatively high levels	–
CN[C@H]1CCc2cc(OC)c(OC)c(OC)c2-c2ccc(OC)c(=O)cc21 [colcemid]	–	–	did not prevent this polyploidization
